Series [1] deals with T1, mushroom tyrosinase (Agaricus bisporus, UniProt C7FF04).
T1 construct: purchased Sigma-Aldrich
Put plainly: Tyrosinase inhibition assay (oxidation of L-DOPA, diphenolase activity).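 On all read-outs here: dopachrome formation from L-DOPA by mushroom tyrosinase in phosphate buffer, compound preincubated with enzyme 10 min at 25 °C, inhibition versus sample-free control, enzyme-free blanks subtracted.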 Type of series: biochemical. As to conditions: for inhibition at 60 µM: read-out: Tyrosinase Inhibition % ± STD (60 μM); for inhibition at 300 µM: read-out: Tyrosinase Inhibition % ± STD (300 μM); for fold more potent tyrosinase inhibition than kojic acid: ratio of IC50 values vs reference kojic acid.

In series [2] the test system is B16F10 cells. Put plainly: MTT cytotoxicity assay. As to conditions: high concentrations. Type of series: cell-based, Mouse. The procedure:
Mouse skin melanoma (B16F10) cells were obtained from the American Tissue Culture Collection (Manassas, VA, USA) and were maintained in Dulbecco's modified Eagle’s medium (Gibco, Thermo Fischer Scientific, Waltham, MA, USA), supplemented with 10% (v/v) fetal bovine serum (Gibco, Thermo Fischer Scientific) and 2 mM glutamine (Gibco, Thermo Fischer Scientific) in a humidified incubator at 5% CO2 and 37 °C.
MTT cytotoxicity assay was performed as described previously. Briefly, B16F10 cells were cultured at 96-wellmicroplates (5000 cells/well). After 24 h the cells were treated with different concentrations of the extracts (in control cells an appropriate amount of DMSO was added). The MTT solution (MTT, Sigma-Aldrich) (1 mg/mL in serum free, phenol red free medium) was added 48 h after the addition of test extracts. After 4 h, the MTT solution was discarded and isopropanol was added to dissolve the formazan crystals. Absorbance was recorded at 570 nm using a microplate reader (EZ Read 400 ELISA microplate reader, Biochrom, Cambridge, UK). Survival of non-treated cells was set to 100%.
For orientation: Tetrazolium dyes change colour on reduction, which living cells bring about.

Series [3] relates to zebrafish embryos. Put plainly: In vivo inhibition of melanogenesis assay. The following applies: embryos treated 24 to 48 hpf, ranking: most potent, followed by, weakest, Figure 5: MAM 70, F33 70, F38-42 10, F43 10, 1/5/6/7 50, 2 7, 11 10 μg/mL.
[4] abbreviates: compound at 60 μM, two independent experiments.
Setting [5] is: compound at 300 μM, two independent experiments.
[6] abbreviates: diphenolase activity, three independent experiments, read-out: Tyrosinase Inhibition IC50 ± STD.

One may read the inhibition as the relative decrease from the control value, in per cent. The IC50 is the concentration needed to halve the response being measured.

Where “and” joins values, the source holds several entries; their conditions need not be identical. Equal values may be shown once. Entries after “also recorded” stand apart in the source; their conditions may differ. Read-outs that look alike come from different tables or passages of the source.

T1 sequence (C7FF04 1-392 limits assumed): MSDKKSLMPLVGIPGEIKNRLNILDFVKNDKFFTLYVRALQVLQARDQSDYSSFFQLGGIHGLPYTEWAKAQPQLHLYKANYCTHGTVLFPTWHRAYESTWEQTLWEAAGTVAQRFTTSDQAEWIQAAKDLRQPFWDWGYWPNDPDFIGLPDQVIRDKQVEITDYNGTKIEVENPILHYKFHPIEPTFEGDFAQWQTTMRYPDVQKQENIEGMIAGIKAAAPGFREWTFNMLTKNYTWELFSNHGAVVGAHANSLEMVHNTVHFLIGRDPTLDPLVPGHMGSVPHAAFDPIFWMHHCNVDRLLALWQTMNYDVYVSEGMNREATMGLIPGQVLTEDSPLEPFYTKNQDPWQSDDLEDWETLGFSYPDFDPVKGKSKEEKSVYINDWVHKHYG

Regarding `Oc1cccc(CCc2ccc(O)cc2O)c1` [2,4,3′-Trihydroxydihydrostilbene (7), 2,4,3′-Trihydroxydihydrostilbene], the inhibition at 60 µM in series [1] (setting [4]) is 96.3 ± 0.5%. The inhibition at 300 µM in series [1] (setting [5]) is 97.8 ± 0.1%. The IC50 in series [1] (setting [6]) was determined as 0.8 ± 0.15 µM. Besides, the “fold more potent tyrosinase inhibition than kojic acid” value in series [1] was ~ 20 fold and 20 fold. Besides, the “cytotoxicity in cells (in words)” value in series [2] is listed as “non-cytotoxic in high concentrations”. For the same compound, in series [3], the “melanogenesis inhibition on zebrafish embryos (in words)” value (“melanogenesis inhibition” below) is recorded as “significantly suppress in vivo melanogenesis; also recorded: most potent; also recorded: significantly suppressed in vivo melanogenesis”.

On to `O=Cc1ccc(O)cc1O` [2,4-Dihydroxybenzaldehyde (9), 2,4-dihydroxybenzaldehyde], for which the inhibition at 300 µM in series [1] (setting [5]) came out at 4.9 ± 0.3%.

As for `Oc1cc(O)cc(CCc2ccc(O)cc2O)c1` [Dihydrooxyresveratrol (5), Dihydrooxyresveratrol], in series [1], the IC50 was determined as 0.3 ± 0.05 µM, the “fold more potent tyrosinase inhibition than kojic acid” value is recorded as ~ 50 fold, the inhibition at 60 µM came to 97.6 ± 0.2% and the inhibition at 300 µM worked out at 98.2 ± 0.5%. The “melanogenesis inhibition” value in series [3] (listed as dihydrooxyresveratrol) is given as “only partially inhibited the melanogenesis”.

The compound `CC(C)=CCc1c(-c2ccc(O)cc2O)oc2c(CC=C(C)C)c(O)cc(O)c2c1=O` [Kuwanon C (2), kuwanon C] yielded an IC50 in series [1] of 76.2 ± 1.1 µM. For the same compound, the inhibition at 60 µM in series [1] (setting [4]) was determined as 46.5 ± 1.3%. For the same compound, the inhibition at 300 µM in series [1] (setting [5]) turned out to be 75.6 ± 1.2%. Besides, in series [3], the “melanogenesis inhibition” value is “weakest inhibitor of melanogenesis”.

Turning to `CC(C)=CCc1c(-c2ccc(O)cc2O)oc2c(C3C=C(C)CC(c4ccc(O)cc4O)C3C(=O)c3ccc(O)cc3O)c(O)cc(O)c2c1=O` (stereo not drawn) [Kuwanon G (12), kuwanon G], in series [1], the concentration for half-maximal inhibition (IC50) was found to be 27.5 ± 1.2 µM, the inhibition at 60 µM was determined as 59.1 ± 1.4% and the inhibition at 300 µM was 77.8 ± 2.8%.

On to `CC(C)=CCc1c(O)ccc(C(=O)C2C(c3c(O)cc(O)c4c(=O)c(CC=C(C)C)c(-c5ccc(O)cc5O)oc34)C=C(C)CC2c2ccc(O)cc2O)c1O` (stereo not drawn) [Kuwanon H (8), kuwanon H], for which the IC50 in series [1] is over 100 µM. Also, the inhibition at 60 µM in series [1] (setting [4]) was found to be 46 ± 2.9%. The inhibition at 300 µM in series [1] (setting [5]) worked out at 49 ± 2.6%.

As to `Oc1cc(O)cc(-c2cc3ccc(O)cc3o2)c1` [Moracin M (11), moracin M], the IC50 in series [1] was 8 ± 0.6 µM. In series [1] (setting [4]), the inhibition at 60 µM was determined as 61.3 ± 1.2%. The inhibition at 300 µM in series [1] (setting [5]) is 87.2 ± 0.5%.

`CC(C)=CCc1c(-c2ccc(O)cc2O)oc2c3c(cc(O)c2c1=O)OC(C)(C)C=C3` [Morusin (10), morusin] returned an IC50 in series [1] of over 100 µM. In addition, the inhibition at 60 µM in series [1] (setting [4]) turned out to be 31 ± 3.2%. Besides, the inhibition at 300 µM in series [1] (setting [5]) was found to be 49.9 ± 2.2%.

The compound `OC[C@H]1O[C@@H](Oc2cc(O)cc(/C=C/c3ccc(O[C@@H]4O[C@H](CO)[C@@H](O)[C@H](O)[C@H]4O)cc3O)c2)[C@H](O)[C@@H](O)[C@@H]1O` [Mulberroside A (3), mulberroside A] returned an IC50 in series [1] of over 100 µM. In addition, the inhibition at 60 µM in series [1] (setting [4]) turned out to be 43.1 ± 0.7%. Moreover, the inhibition at 300 µM in series [1] (setting [5]) turned out to be 58.3 ± 1.4%.

For the compound `Oc1cc(O)cc(/C=C/c2ccc(O)cc2O)c1` [Oxyresveratrol (1), oxyresveratrol], the “melanogenesis inhibition” value in series [3] is “significantly suppress in vivo melanogenesis; also recorded: most potent”.

In series [1], `Oc1cccc(O)c1` [Resorcinol (4), resorcinol] came in with an IC50 of 163 ± 18.2 µM. The inhibition at 60 µM in series [1] (setting [4]) was 38 ± 1.1%. For the same compound, in series [1] (setting [5]), the inhibition at 300 µM worked out at 60.4 ± 1%.

`O=C1c2c(O)cc(O)cc2OC(c2ccc(O)cc2O)C1O` (stereo not drawn) [trans-Dihydromorin (6), trans-dihydromorin]: the inhibition at 60 µM in series [1] (setting [4]) was 73.1 ± 0.6%. In series [1] (setting [5]), the inhibition at 300 µM was 94.3 ± 0.1%. The IC50 in series [1] (setting [6]) was 9.4 ± 1.3 µM. In addition, the “melanogenesis inhibition” value in series [3] is on record as “significantly suppress in vivo melanogenesis; also recorded: most potent”.

For the origin of these results see publication PMC6154579, “Anti-Melanogenic Properties of Greek Plants. A Novel Depigmenting Agent from Morus alba Wood” (Molecules : A Journal of Synthetic Chemistry and Natural …, 2017).
